The results in this text go back to ChEMBL document CHEMBL1177819, “Monastrol analogs: a synthesis of pyrazolopyridine, benzopyranopyrazolopyridine, and oxygen-bridged azolopyrimidine derivatives and their biological screening” (Bioorg Med Chem Lett, 2010).

Data set [1] concerns the target T1, Kinesin-like protein KIF11 (Homo sapiens) (UniProt P52732).
T1 sequence (whole entry): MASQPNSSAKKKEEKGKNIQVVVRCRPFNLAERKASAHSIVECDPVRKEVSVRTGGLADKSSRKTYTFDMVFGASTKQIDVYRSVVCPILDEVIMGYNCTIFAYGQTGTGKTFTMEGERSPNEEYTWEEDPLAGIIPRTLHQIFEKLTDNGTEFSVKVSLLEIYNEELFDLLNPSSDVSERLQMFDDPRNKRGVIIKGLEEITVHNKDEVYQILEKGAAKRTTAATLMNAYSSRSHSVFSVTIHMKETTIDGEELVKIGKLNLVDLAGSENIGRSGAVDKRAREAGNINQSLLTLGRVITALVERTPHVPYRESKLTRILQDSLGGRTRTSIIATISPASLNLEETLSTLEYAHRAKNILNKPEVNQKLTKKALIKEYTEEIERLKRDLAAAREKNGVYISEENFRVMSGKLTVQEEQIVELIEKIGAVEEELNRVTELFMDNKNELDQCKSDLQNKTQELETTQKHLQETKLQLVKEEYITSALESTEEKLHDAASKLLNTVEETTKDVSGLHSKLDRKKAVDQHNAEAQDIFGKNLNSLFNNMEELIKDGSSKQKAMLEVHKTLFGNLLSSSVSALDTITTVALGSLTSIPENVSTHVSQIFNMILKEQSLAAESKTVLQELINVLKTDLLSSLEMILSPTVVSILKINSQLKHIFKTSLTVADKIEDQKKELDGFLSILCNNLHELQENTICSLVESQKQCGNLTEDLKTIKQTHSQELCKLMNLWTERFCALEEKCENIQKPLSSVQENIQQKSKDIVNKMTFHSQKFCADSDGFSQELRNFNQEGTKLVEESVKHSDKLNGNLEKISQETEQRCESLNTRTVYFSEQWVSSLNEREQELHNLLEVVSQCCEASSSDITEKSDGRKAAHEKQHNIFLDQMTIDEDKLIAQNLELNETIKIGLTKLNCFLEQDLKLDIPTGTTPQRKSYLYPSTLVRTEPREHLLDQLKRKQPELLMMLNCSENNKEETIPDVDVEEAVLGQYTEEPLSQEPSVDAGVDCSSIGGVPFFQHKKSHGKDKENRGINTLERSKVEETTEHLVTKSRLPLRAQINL
Description: Inhibition of kinasin spindle protein by ATPase assay.

Data set [2] deals with T1, Kinesin-like protein KIF11 (Homo sapiens). In words: Inhibition of kinasin spindle protein in human HeLa cells assessed as inhibition of induction of mitotic arrest. The format is cell-based.
The nature of data set [3]: Toxicity in african green monkey BSC1 cells at 100 uM. The following applies: chlorocebus aethiops, bsc-1, 100 µM. The format is cell-based.
Data set [4] deals with HeLa. Description: Toxicity in human HeLa cells at 100 uM. The format is cell-based.

The source made the active and inactive calls. The calls are words filed in the database; no cut-off is given here.

With `COC(=O)C1=C(C)Nc2n[nH]c(C)c2C1c1cccc(O)c1` (centres undefined), the inhibition entry in data set [1] and in data set [2] was “inactive” in each case.

`CC1=C2C(=O)Oc3ccccc3C2c2c(n[nH]c2C)N1` (centres undefined): the inhibition entry in data set [1] and in data set [2] was “inactive” in each case.

On to `Cc1cc2n(n1)[C@H]1C[C@@](C)(N2)Oc2ccccc21`, for which the inhibition entry in data set [1] and in data set [2] was “inactive” throughout.

Regarding `C[C@@]12C[C@@H](c3ccccc3O1)n1nnnc1N2`, the inhibition entry in data set [1] and in data set [2] was “inactive” throughout.

In the case of `C[C@@]12C[C@@H](c3ccccc3O1)n1c(nc3ccccc31)N2`, the inhibition result in data set [1] and in data set [2] was “inactive” each time. For the same compound, the Activity entry in data set [3] and in data set [4] was “Toxic” throughout.

As to `C[C@@]12C[C@@H](c3ccccc3O1)N1CCSC1=N2`, the inhibition result in data set [1] and in data set [2] was “inactive” in each case.
